From PubChem BioAssay (NCI)
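Five concentrations, 48 hours, 96-well plates. GI50 = concentration required for 50% inhibition of growth. The concentration for full growth arrest is given as TGI.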

Experiments:
Test in all cases: DTP human tumour cell line panel, 48 h
HS 578T breast = tested on: HS 578T breast
ACHN renal = tested on: ACHN renal
K-562 leukemia = tested on: K-562 leukemia
RPMI-8226 leukemia = tested on: RPMI-8226 leukemia
OVCAR-3 ovarian = tested on: OVCAR-3 ovarian
OVCAR-4 ovarian = tested on: OVCAR-4 ovarian
MDA-MB-468 breast = tested on: MDA-MB-468 breast
UACC-257 melanoma = tested on: UACC-257 melanoma
M14 melanoma = tested on: M14 melanoma
U251 CNS = tested on: U251 CNS
NCI-H522 lung = tested on: NCI-H522 lung
SN12C renal = tested on: SN12C renal
SK-MEL-2 melanoma = tested on: SK-MEL-2 melanoma
HCC-2998 colon = tested on: HCC-2998 colon
HOP-62 NSCLC = tested on: HOP-62 NSCLC
NCI-H23 lung = tested on: NCI-H23 lung
EKVX NSCLC = tested on: EKVX NSCLC
SNB-19 CNS = tested on: SNB-19 CNS
TK-10 renal = tested on: TK-10 renal
SK-MEL-28 melanoma = tested on: SK-MEL-28 melanoma
SR leukemia = tested on: SR leukemia
SF-539 CNS = tested on: SF-539 CNS
A498 renal = tested on: A498 renal
NCI-H460 lung = tested on: NCI-H460 lung
KM12 colon = tested on: KM12 colon
MALME-3M melanoma = tested on: MALME-3M melanoma
SK-MEL-5 melanoma = tested on: SK-MEL-5 melanoma
HOP-92 NSCLC = tested on: HOP-92 NSCLC
UACC-62 melanoma = tested on: UACC-62 melanoma
MCF7 breast = tested on: MCF7 breast
SF-295 CNS = tested on: SF-295 CNS
SK-OV-3 ovarian = tested on: SK-OV-3 ovarian
SW-620 colon = tested on: SW-620 colon
DU-145 prostate = tested on: DU-145 prostate
MDA-MB-231 breast = tested on: MDA-MB-231 breast
T-47D breast = tested on: T-47D breast
HL-60(TB) leukemia = tested on: HL-60(TB) leukemia
RXF 393 renal = tested on: RXF 393 renal
A549 NSCLC = tested on: A549 NSCLC
BT-549 breast = tested on: BT-549 breast
PC-3 prostate = tested on: PC-3 prostate
UO-31 renal = tested on: UO-31 renal
CCRF-CEM leukemia = tested on: CCRF-CEM leukemia
OVCAR-8 ovarian = tested on: OVCAR-8 ovarian
MDA-MB-435 = tested on: MDA-MB-435
NCI-H226 lung = tested on: NCI-H226 lung
SF-268 CNS = tested on: SF-268 CNS
HCT-116 colon = tested on: HCT-116 colon
786-0 renal = tested on: 786-0 renal
CAKI-1 renal = tested on: CAKI-1 renal
MOLT-4 leukemia = tested on: MOLT-4 leukemia
COLO 205 colon = tested on: COLO 205 colon
HCT-15 colon = tested on: HCT-15 colon
HT29 colon = tested on: HT29 colon
LOX IMVI melanoma = tested on: LOX IMVI melanoma
IGROV1 ovarian = tested on: IGROV1 ovarian

Molecule COc1cc(/C=C/C(=O)c2cnn(-c3cc(=O)[nH]c4ccccc34)c2C)cc(OC)c1OC has a GI50 (HS 578T breast) of 4.54 µM, a TGI (HS 578T breast) greater than 100 µM and a GI50 (ACHN renal) of 3.72 µM. For the same molecule, the TGI (ACHN renal) was 25.5 µM, the GI50 (K-562 leukemia) was 2.68 µM and the TGI (K-562 leukemia) was greater than 100 µM. It also gave a GI50 (RPMI-8226 leukemia) of 2.99 µM, a TGI (RPMI-8226 leukemia) greater than 100 µM and a GI50 (OVCAR-3 ovarian) of 3.57 µM. The TGI (OVCAR-3 ovarian) was greater than 100 µM, the GI50 (OVCAR-4 ovarian) was 5.48 µM and the TGI (OVCAR-4 ovarian) was greater than 100 µM. The GI50 (MDA-MB-468 breast) was 2.22 µM, the TGI (MDA-MB-468 breast) was 6.06 µM and the GI50 (UACC-257 melanoma) was 7.03 µM. It also gave a TGI (UACC-257 melanoma) greater than 100 µM, a GI50 (M14 melanoma) of 4.45 µM and a TGI (M14 melanoma) greater than 100 µM. It also gave a GI50 (U251 CNS) of 2.74 µM, a TGI (U251 CNS) of 13.6 µM and a GI50 (NCI-H522 lung) of 3.74 µM. For the same molecule, the TGI (NCI-H522 lung) was 39.8 µM, the GI50 (SN12C renal) was 2.2 µM and the TGI (SN12C renal) was 8.36 µM. The GI50 (SK-MEL-2 melanoma) was 2.89 µM, the TGI (SK-MEL-2 melanoma) was 10.2 µM and the GI50 (HCC-2998 colon) was 4 µM. For the same molecule, the TGI (HCC-2998 colon) was greater than 100 µM, the GI50 (HOP-62 NSCLC) was 4.43 µM and the TGI (HOP-62 NSCLC) was 27.1 µM. The GI50 (NCI-H23 lung) was 2.66 µM, the TGI (NCI-H23 lung) was 7.98 µM and the GI50 (EKVX NSCLC) was 3.42 µM. The TGI (EKVX NSCLC) was greater than 100 µM, the GI50 (SNB-19 CNS) was 5.23 µM and the TGI (SNB-19 CNS) was greater than 100 µM. It also gave a GI50 (TK-10 renal) of 4.62 µM, a TGI (TK-10 renal) greater than 100 µM and a GI50 (SK-MEL-28 melanoma) of 4.94 µM. For the same molecule, the TGI (SK-MEL-28 melanoma) was greater than 100 µM, the GI50 (SR leukemia) was 3.82 µM and the TGI (SR leukemia) was greater than 100 µM. The GI50 (SF-539 CNS) was 2.01 µM, the TGI (SF-539 CNS) was 4.84 µM and the GI50 (A498 renal) was 34.2 µM. The TGI (A498 renal) was greater than 100 µM, the GI50 (NCI-H460 lung) was 2.55 µM and the TGI (NCI-H460 lung) was 7.29 µM. It also gave a GI50 (KM12 colon) of 3.83 µM, a TGI (KM12 colon) greater than 100 µM and a GI50 (MALME-3M melanoma) of 5.84 µM. It also gave a TGI (MALME-3M melanoma) greater than 100 µM, a GI50 (SK-MEL-5 melanoma) of 3.51 µM and a TGI (SK-MEL-5 melanoma) of 14.7 µM. It also gave a GI50 (HOP-92 NSCLC) of 7.59 µM, a TGI (HOP-92 NSCLC) of 51.8 µM and a GI50 (UACC-62 melanoma) of 5.18 µM. For the same molecule, the TGI (UACC-62 melanoma) was 20.5 µM, the GI50 (MCF7 breast) was 2.88 µM and the TGI (MCF7 breast) was greater than 100 µM. For the same molecule, the GI50 (SF-295 CNS) was 2.95 µM, the TGI (SF-295 CNS) was 18.1 µM and the GI50 (SK-OV-3 ovarian) was 5.03 µM. The TGI (SK-OV-3 ovarian) was 35.9 µM, the GI50 (SW-620 colon) was 3.59 µM and the TGI (SW-620 colon) was greater than 100 µM. For the same molecule, the GI50 (DU-145 prostate) was 4.21 µM, the TGI (DU-145 prostate) was greater than 100 µM and the GI50 (MDA-MB-231 breast) was 3.06 µM. It also gave a TGI (MDA-MB-231 breast) of 14.1 µM, a GI50 (T-47D breast) of 2.8 µM and a TGI (T-47D breast) greater than 100 µM. The GI50 (HL-60(TB) leukemia) was 3.52 µM, the TGI (HL-60(TB) leukemia) was greater than 100 µM and the GI50 (RXF 393 renal) was 2.65 µM. The TGI (RXF 393 renal) was 8.21 µM, the GI50 (A549 NSCLC) was 3.78 µM and the TGI (A549 NSCLC) was greater than 100 µM. The GI50 (BT-549 breast) was 3.48 µM, the TGI (BT-549 breast) was 24.9 µM and the GI50 (PC-3 prostate) was 7.39 µM. The TGI (PC-3 prostate) was greater than 100 µM, the GI50 (UO-31 renal) was 4.03 µM and the TGI (UO-31 renal) was 37.1 µM. For the same molecule, the GI50 (CCRF-CEM leukemia) was 2.58 µM, the TGI (CCRF-CEM leukemia) was 21.5 µM and the GI50 (OVCAR-8 ovarian) was 2.11 µM. For the same molecule, the TGI (OVCAR-8 ovarian) was 5.09 µM, the GI50 (MDA-MB-435) was 3.34 µM and the TGI (MDA-MB-435) was greater than 100 µM. The GI50 (NCI-H226 lung) was 5.24 µM, the TGI (NCI-H226 lung) was 47.8 µM and the GI50 (SF-268 CNS) was 4.26 µM. The TGI (SF-268 CNS) was greater than 100 µM, the GI50 (HCT-116 colon) was 7.13 µM and the TGI (HCT-116 colon) was greater than 100 µM. It also gave a GI50 (786-0 renal) of 4.56 µM, a TGI (786-0 renal) of 28.9 µM and a GI50 (CAKI-1 renal) of 4.05 µM. The TGI (CAKI-1 renal) was greater than 100 µM, the GI50 (MOLT-4 leukemia) was 3.28 µM and the TGI (MOLT-4 leukemia) was greater than 100 µM. The GI50 (COLO 205 colon) was 3.71 µM, the TGI (COLO 205 colon) was 17.5 µM and the GI50 (HCT-15 colon) was 3.23 µM. It also gave a TGI (HCT-15 colon) of 26.1 µM, a GI50 (HT29 colon) of 3.14 µM and a TGI (HT29 colon) greater than 100 µM. For the same molecule, the GI50 (LOX IMVI melanoma) was 2.1 µM, the TGI (LOX IMVI melanoma) was 5.64 µM and the GI50 (IGROV1 ovarian) was 3 µM. The TGI (IGROV1 ovarian) was 16.3 µM.
